From patent publication EP0056616A2, “Cycloheptene derivatives, process for their preparation, and pharmaceuticals containing them” (F. HOFFMANN-LA ROCHE & CO. Aktiengesellschaft, priority 1981, dated 1982)

What was measured:
[1] = system: Histamin-H1; assay: Protection against lethal histamine dihydrochloride dose (histamine H1 antagonism) in guinea pigs; format: in vivo, Meerschweinchen; conditions: 10 per dose, test substance orally 1 hour before lethal Histamin-dihydrochlorid (10 mg/kg s.c.), dose protecting 50% of animals from death, probit method
Description: Ueberraschenderweise hat es sich gezeigt, dass die erfindungsgemässen Produkte die H1-Wirkung des Histamins zu hemmen vermögen. Die Verbindungen der allgemeinen Formel I und ihre pharmazeutisch annehmbaren Säureadditionssalze sind somit wertvolle Histamin-H antagonistische Wirkstoffe und eignen sich insbesondere zur Bekämpfung bzw. Verhütung von allergischen Reaktionen, wie beispielsweise Urtikaria, Heuschnupfen, Anaphylaxie und Arzneimittelüberempfindlichkeit. Diese Histamin-H1 antagonistischen Eigenschaften können wie nachfolgend beschrieben an männlichen und weiblichen, 240 bis 300 g schweren Meerschweinchen (SPF, Füllinsdorf) ermittelt werden:
Den Versuchstieren (10 pro Dosis) wird während 24 Stunden vor Versuchsbeginn das Futter entzogen, wobei Wasser ad libitum erhältlich ist. Eine Stunde nach oraler Verabreichung einer Lösung der Testsubstanz (10 ml/kg) erhalten die Versuchstiere eine letale Dosis von Histamin-dihydrochlorid (10 mg/kg s.c.). Ungeschützte Tiere, d.h. nur mit Histamin-dihydrochlorid behandelte Tiere, sterben innerhalb einer Stunde. Nach Auszählen der überlebenden, geschützten'Tiere wird die ED50 nach der Probitmethode ermittelt. Die ED50 ist diejenige Dosis, die notwendig ist, um 50% der mit der Testsubstanz behandelten Tiere vor dem Tod zu schützen.

[2] = Acute toxicity after single oral administration to mice; conditions: mouse, in vivo, read-out: DL50 (the source's name)
Description: Die nachfolgende Tabelle enthält für zwei repräsentative Vertreter der durch die allgemeine Formel I umfassten Verbindungsklasse die ED50-Werte, sowie Angaben über deren akute Toxizität bei einmaliger oraler Verabreichung an Mäusen (DL50 in m^g/k^g).

Cc1cccc2c1CCC1=C(CCCC1)C2CCCN(C)C (stereo not shown) [B, 2,3,4,5,10,11-Hexahydro-N,N,9-trimethyl-1H-dibenzo-[a,d]cyclohepten-5-propylamin]
ED50 [1]: 0,9 mg/kg p.o.
LD50 [2]: 250 to 500 mg/kg

Cc1cccc2c1CCC1=C(CC=CC1)C2CCCN(C)C (stereo not shown) [A, 4,5,10,11-Tetrahydro-N,N,9-trimethyl-1H-dibenzo[a,d]-cyclohepten-5-propylamin]
ED50 [1]: 0,4 mg/kg p.o.
LD50 [2]: 600 to 1200 mg/kg
